Here are results for eleven molecules from ChEMBL document CHEMBL1201862, “PubChem BioAssay data set” (2004).

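These data come from cells grown in 96-well plates and exposed to compound for 48 hours at five concentrations. GI50: concentration for 50% inhibition of growth.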 Activity calls are given as the source filed them. Cut-off read from the data, not from the text of the source: active = GI50 up to about 1.1 µM and inactive = higher.

Assay in all cases: NCI tumour cell line growth inhibition, 48 h
Test [1] deals with RPMI-8226.
The subject of test [2] is OVCAR-8.
In test [3] the test system is HT-29.
Test [4] deals with 786-0.
The test system of test [5] is SF-295.
In test [6] the test system is NCI-H522.
The subject of test [7] is OVCAR-3.
For test [8], the system named is U-251.
The subject of test [9] is HL-60.
Test [10] deals with NCI-H23.
The test system of test [11] is UACC-257.
Test [12] relates to NCI-H460.
Test [13] deals with EKVX.
Test [14] deals with CCRF-CEM.
The test system of test [15] is Malme-3M.
Test [16] concerns K562.
In test [17] the test system is IGROV-1.
In test [18] the test system is SK-MEL-5.
The subject of test [19] is UACC-62.
Test [20] has as its system SNB-75.

Take `BrP(NC1CCCCCC1)(c1ccccc1)(c1ccccc1)c1ccccc1`: the GI50 in test [1] was 1.03 µM (active); in test [2] it was 2.9 µM (inactive); in test [3], 2.1 µM (inactive); in [4], 7.53 µM (inactive); in test [5], 3.03 µM (inactive); in test [6], 2.23 µM (inactive). Besides, the GI50 was 3.38 µM (inactive) in test [7]; 3.55 µM (inactive) in test [8]; 1.9 µM (inactive) in test [9]; 5.12 µM (inactive) in [10]; 1.86 µM (inactive) in [11]; 1.33 µM (inactive) in test [12]. Moreover, the GI50 in test [13] is 7.14 µM (inactive); in test [14], 2.97 µM (inactive); in test [15] it was 2.93 µM (inactive); in test [16], 2.74 µM (inactive); in test [17], 3.96 µM (inactive); in test [18] it was 1.59 µM (inactive). Also, the GI50 in test [19] is 3.03 µM (inactive).
For the molecule `C=C1COC(/C=C(\C)CC/C=C(\C)CCl)C1` (stereo unspecified), the GI50 in test [1], in [2], in test [3], in test [4], in test [5] and in test [6] was > 100 µM (inactive) in each case. Further, the GI50 in test [7], in [8], in test [9], in test [20], in test [10] and in [12] was > 100 µM (inactive) in each case. Besides, the GI50 in [13], in [14], in [16], in test [17], in test [18] and in test [19] was > 100 µM (inactive) in each case.
Take `CC(C)(C)c1ccc(C(O)c2ccc(C(C)(C)C)cc2)cc1`: the GI50 is 14.8 µM (inactive) in test [2]; 10.4 µM (inactive) in test [3]; 15.5 µM (inactive) in [4]; 14 µM (inactive) in test [5]; 10.2 µM (inactive) in test [6]; 14.5 µM (inactive) in [7]. The GI50 is 13.1 µM (inactive) in test [8]; 17.1 µM (inactive) in [9]; 19.2 µM (inactive) in [20]; 12.1 µM (inactive) in test [10]; 18.8 µM (inactive) in test [11]; 12.8 µM (inactive) in [12]. For the same molecule, the GI50 in test [13] was 17.7 µM (inactive); in [14], 16.9 µM (inactive); in [15], 15.8 µM (inactive); in test [16], 14.7 µM (inactive); in test [17], 16.1 µM (inactive); in [18], 16.6 µM (inactive). For the same molecule, the GI50 in test [19] is 15.8 µM (inactive).
Take `CCOC(=O)CC[C@H](NC(=O)c1nc[nH]c1/N=N/N(C)C)C(=O)OCC`: the GI50 in test [1], in [2], in test [3], in test [4], in [5] and in test [6] was > 100 µM (inactive) each time. Also, the GI50 in test [7], in test [8], in test [9], in [10], in [11] and in test [12] was > 100 µM (inactive) throughout. Moreover, the GI50 in test [13], in test [14], in test [15], in test [16], in test [17] and in [18] was > 100 µM (inactive) each time. Moreover, the GI50 in test [19] was > 100 µM (inactive).
As for `COC(=O)c1ccc(NC(=O)c2cc(OC)c(OC)c(OC)c2)cc1`, the GI50 was 12.2 µM (inactive) in test [2]; 1.35 µM (inactive) in test [3]; 0.859 µM (active) in [4]; 0.8 µM (active) in [5]; 0.836 µM (active) in test [6]; 1.08 µM (active) in [7]. The GI50 was 0.236 µM (active) in test [8]; 2.09 µM (inactive) in test [9]; 42.1 µM (inactive) in test [20]; 0.0279 µM (active) in test [10]; 0.0215 µM (active) in [11]; 2.23 µM (inactive) in test [12]. Further, the GI50 is 38.4 µM (inactive) in [13]; 3.73 µM (inactive) in test [14]; 0.644 µM (active) in test [15]; 1.97 µM (inactive) in test [16]; 3.17 µM (inactive) in [17]; 0.195 µM (active) in test [18]. Moreover, the GI50 in [19] is 1.09 µM (active).
With `CS(=O)(=O)c1n[nH]c2nc(O)nc(O)c12`, the GI50 in [2], in test [3], in [4], in test [5], in test [6] and in test [7] was > 10 µM (inactive) in each case. For the same molecule, the GI50 in [8], in test [9], in [20], in [10], in [11] and in test [12] was > 10 µM (inactive) in each case. Moreover, the GI50 in test [13], in [14], in test [15], in test [17], in test [18] and in [19] was > 10 µM (inactive) in each case.
Take `N#C/N=[N+](\[O-])c1ccc(C(=O)O)cc1`: the GI50 in test [1] was 14.5 µM (inactive); in test [2], 17.6 µM (inactive); in [3], 20.3 µM (inactive); in test [5], > 100 µM (inactive); in test [6], 19.5 µM (inactive); in [7], 15.2 µM (inactive). The GI50 in test [8] is 19 µM (inactive); in [9] it was < 0.01 µM (active); in test [20] it was 23.1 µM (inactive); in [10], 17.7 µM (inactive); in test [11], 18 µM (inactive); in [12] it was 28.7 µM (inactive). Moreover, the GI50 in [13] was 18.4 µM (inactive); in test [14], 32.7 µM (inactive); in test [16], 15.4 µM (inactive); in [17], 43.5 µM (inactive); in test [19], 17.4 µM (inactive).
In the case of `C(=C\Nc1ccc(Oc2ccccc2)cc1)/C=N/c1ccc(Oc2ccccc2)cc1`, the GI50 is 21.8 µM (inactive) in [1]; 20.2 µM (inactive) in [2]; 15.9 µM (inactive) in test [3]; 16.6 µM (inactive) in [4]; 15.9 µM (inactive) in test [5]; 20 µM (inactive) in test [6]. Besides, the GI50 in test [7] was 19 µM (inactive); in test [8], 19.1 µM (inactive); in test [9], 23.7 µM (inactive); in [20] it was 17.2 µM (inactive); in test [10], 22.2 µM (inactive); in test [11], 17.1 µM (inactive). Also, the GI50 in test [12] is 16.7 µM (inactive); in test [13], 18.4 µM (inactive); in test [14], 15.3 µM (inactive); in [15], 17.1 µM (inactive); in [16] it was 22.5 µM (inactive); in [17], 17.1 µM (inactive).
As to `COc1ccc2c(c1)OCCC1=C2SCC2(C)CCN=C12` (stereo unspecified), the GI50 was > 100 µM (inactive) in test [1]; > 100 µM (inactive) in test [2]; 55.2 µM (inactive) in test [3]; > 100 µM (inactive) in [4]; > 100 µM (inactive) in [5]; > 100 µM (inactive) in test [6]. Also, the GI50 in test [7] was 72.6 µM (inactive); in test [8], > 100 µM (inactive); in [9] it was 29 µM (inactive); in test [20], > 100 µM (inactive); in test [10], 61.7 µM (inactive); in [12] it was > 100 µM (inactive). Also, the GI50 in [14] is > 100 µM (inactive); in test [16], 46.2 µM (inactive); in [17], > 100 µM (inactive); in [18] it was 46.5 µM (inactive); in [19], > 100 µM (inactive).
For `CCOC(=O)C(NC(=O)N(C1=NCC(C)S1)C1CCCCC1)(OC)C(F)(F)F` (stereo unspecified), the GI50 in test [2] was 70.5 µM (inactive); in [3], 20.7 µM (inactive); in test [4], 15.5 µM (inactive); in test [5], 49.8 µM (inactive); in test [6], 27.7 µM (inactive); in test [7], 24.3 µM (inactive). The GI50 in test [8] is 22.6 µM (inactive); in test [9] it was 30.2 µM (inactive); in [20], 31 µM (inactive); in [10], 43.3 µM (inactive); in test [11], 56.5 µM (inactive); in test [12], 35.4 µM (inactive). Moreover, the GI50 is 34.8 µM (inactive) in [13]; 25.2 µM (inactive) in test [14]; 45.8 µM (inactive) in test [15]; 56.9 µM (inactive) in [16]; 23.8 µM (inactive) in [18]; 32.8 µM (inactive) in test [19].
As to `CC(C)C(=O)/C=C/c1ccc(Br)cc1`, the GI50 in test [1] was 5.38 µM (inactive); in [2], 23.2 µM (inactive); in test [3], 14.7 µM (inactive); in test [4], 11.2 µM (inactive); in test [5] it was 15.5 µM (inactive); in test [6], 12.2 µM (inactive). Also, the GI50 is 14.2 µM (inactive) in [7]; 10.9 µM (inactive) in [8]; 10.8 µM (inactive) in test [9]; 18.1 µM (inactive) in test [20]; 17.7 µM (inactive) in test [10]; 16.5 µM (inactive) in test [11]. The GI50 in [12] was 14.9 µM (inactive); in test [13], 24 µM (inactive); in test [14] it was 3.15 µM (inactive); in [16], 3.94 µM (inactive); in [17], 19.2 µM (inactive); in test [18], 12.7 µM (inactive). Moreover, in test [19], the GI50 was 14.5 µM (inactive).
